From patent US10344019B2 (priority 2010, dated 2019)
Read-outs that look alike come from different tables or passages of the source.

Columns and labels:
Assay in all cases: microbe, parasite or virus in culture
Assay type in all cases: cell-based
[1] = test system: HCV 2a JFH-1 Rluc cells (dicistronic genotype 2a JFH-1 replicon, RLuc reporter); settings: Hepatitis C virus, genotype 2a JFH-1 replicon, read-out: 2a JFH
In short: (§1)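 Replicon cells stably carrying the listed RLuc-encoding dicistronic replicons were seeded and treated with DMSO serial dilutions of compound (10 mM stocks) diluted into culture medium. After 72 h, cells were lysed and Renilla luciferase activity measured. EC50 was derived by non-linear regression.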

[2] = test system: HCV 4a Rluc cells (NS5A chimeric genotype 1b Con1 replicon with genotype 4a NS5A gene); settings: Hepatitis C virus, read-out: 4a
In short: as §1

[3] = test system: HCV 1a RLuc cells (dicistronic genotype 1a H77 replicon, RLuc reporter); settings: Hepatitis C virus, read-out: 1a
In short: as §1

[4] = test system: HCV 3a RLuc cells (NS5A chimeric genotype 1b Con1 replicon with consensus genotype 3a NS5A gene); settings: Hepatitis C virus
In short: as §1

[5] = test system: HCV 1b RLuc cells (dicistronic genotype 1b Con1 replicon, RLuc reporter); settings: Hepatitis C virus, read-out: 1b (nM)
In short: as §1

[6] = read-out: 3a, genotype 3a replicon
[7] = genotype 1a H77 replicon, RLuc reporter
[8] = read-out: 3a, genotype 3a NS5A chimeric 1b Con1 replicon
[9] = 72 h, Table 2, genotype 1a H77 replicon, 72 hours
[10] = read-out: 3a, Table 2, genotype 3a NS5A chimeric replicon

Row | SMILES | EC50 [1] [pM] | EC50 [2] [pM] | EC50 ([3]; genotype 1a replicon) [pM] | EC50 [4, 6] [pM] | EC50 [5] [nM] | EC50 ([1]; RLuc reporter) [pM] | EC50 [3, 7] [pM] | EC50 [4, 8] [pM] | EC50 ([1]; 72 h, Table 2, 72 hours) [pM] | EC50 [3, 9] [pM] | EC50 [4, 10] [pM] | EC50 ([5]; 72 h) [nM]
1 | COC(=O)N[C@H](C(=O)N1CCC[C@H]1c1nc2ccc3cc(-c4ccc(-c5[nH]c([C@@H]6C[C@H]7C[C@H]7N6C(=O)[C@@H](NC(=O)OC)C(C)C)nc5Cl)cc4)ccc3c2[nH]1)C(C)C [Example 383] | 1 to 999 | 1 to 990 | 1 to 999 | 1 to 990 | 0.008 |  |  |  |  |  |  | 
2 | COC(=O)N[C@H](C(=O)N1CCC[C@H]1c1nc2c3ccccc3c3cc(-c4ccc(-c5cnc([C@@H]6CCCN6C(=O)[C@@H](NC(=O)OC)C6CCOCC6)[nH]5)cc4)ccc3c2[nH]1)C(C)C [Example 300] | 1 to 999 | 1 to 990 | 1000 to 44000 | 1000 to 4990 | 0.023 |  |  |  |  |  |  | 
3 | COC(=O)N[C@H](C(=O)N1CCC[C@H]1c1nc2ccc3cc(-c4ccc5cc(-c6cnc([C@@H]7CCCN7C(=O)[C@@H](NC(=O)OC)C7CCOCC7)[nH]6)ccc5c4)ccc3c2[nH]1)C(C)C [Example 195] |  | 1 to 990 |  |  | 0.023 | 1 to 999 | 1 to 999 | 1000 to 4990 |  |  |  | 
4 | COC(=O)N[C@H](C(=O)N1CCC[C@H]1c1nc2ccc3cc(-c4ccc5cc(-c6cnc([C@@H]7[C@H]8CC[C@H](C8)N7C(=O)[C@H](NC(=O)OC)c7ccccc7)[nH]6)ccc5c4)ccc3c2[nH]1)C(C)C [Example 39] |  | 1 to 990 |  |  |  |  |  |  | 1000 to 44000 | 1 to 999 | 1000 to 4990 | 0.009
5 | COC(=O)N[C@H](C(=O)N1CCC[C@H]1c1nc2ccc(-c3ccc4c(c3)C(F)(F)c3cc(-c5c[nH]c([C@@H]6CCCN6C(=O)[C@H](NC(=O)OC)c6ccccc6)n5)ccc3-4)cc2[nH]1)C1CCOCC1 [Example 218] |  | 1 to 990 |  |  | 0.01 | 1 to 999 | 1 to 999 | 1 to 990 |  |  |  | 
6 | COC(=O)N[C@H](C(=O)N1[C@@H]2CC[C@@H](C2)[C@H]1c1ncc(-c2ccc(-c3ccc4c(ccc5nc([C@@H]6C[C@H]7C[C@H]7N6C(=O)[C@@H](NC(=O)OC)C6CCOCC6)[nH]c54)c3)cc2)[nH]1)C(C)C [Example 378] | 1 to 999 | 1 to 990 | 1 to 999 | 1 to 990 | 0.036 |  |  |  |  |  |  | 
7 | COC(=O)N[C@H](C(=O)N1CCS[C@H]1c1nc2ccc3cc(-c4ccc(-c5cnc([C@@H]6CCCN6C(=O)[C@@H](NC(=O)OC)C6CCOCC6)[nH]5)cc4)ccc3c2[nH]1)C(C)C [Example 316] | 1 to 999 | 1 to 990 | 1 to 999 | 1 to 990 | 0.242 |  |  |  |  |  |  | 
8 | COC(=O)N[C@H](C(=O)N1C[C@@H](C#N)C[C@H]1c1ncc(-c2ccc3cc(-c4ccc(-c5cnc([C@@H]6CCCN6C(=O)[C@H](NC(=O)OC)c6ccccc6)[nH]5)cc4)ccc3c2)[nH]1)C(C)C [Example 116] |  | 1 to 990 |  |  | 0.008 | 1 to 999 | 1 to 999 | 1 to 990 |  |  |  | 
9 | COC(=O)N[C@H](C(=O)N1CCC[C@H]1c1ncc(-c2ccc3c(c2)C(F)(F)c2cc(-c4ccc5nc([C@@H]6CC7(CN6C(=O)[C@H](NC(=O)OC)c6ccccc6)OCCO7)[nH]c5c4)ccc2-3)[nH]1)C1CCOCC1 [Example 58] |  | 1 to 990 |  |  |  |  |  |  | 1 to 999 | 1 to 999 | 1000 to 4990 | 0.017
10 | COC(=O)N[C@H](C(=O)N1CCC[C@H]1c1nc2ccc3cc(-c4ccc5c(c4)CCc4nc(C6CC7(CN6C(=O)[C@H](NC(=O)OC)c6ccccc6)OCCO7)[nH]c4-5)ccc3c2[nH]1)C(C)C (stereo partly shown) [Example 369] | 1 to 999 | 1 to 990 | 1 to 999 | 1 to 990 | 0.047 |  |  |  |  |  |  | 
11 | COC(=O)N[C@H](C(=O)N1CCC[C@H]1c1ncc(-c2ccc3cc(-c4ccc(-c5cnc([C@@H]6CC7(CC7)CN6C(=O)[C@H](NC(=O)OC)c6ccccc6)[nH]5)cc4)ccc3c2)[nH]1)C(C)C [Example 235] |  | 1 to 990 |  |  | 0.004 | 1 to 999 | 1 to 999 | 1000 to 4990 |  |  |  | 
12 | COC(=O)N[C@H](C(=O)N1CCC[C@H]1c1ncc(-c2cccc(-c3ccc4cc(-c5cnc([C@@H]6CCCN6C(=O)[C@@H](NC(=O)OC)C(C)C)[nH]5)ccc4c3)c2)[nH]1)C(C)C [Example 243] |  | 1 to 990 |  |  | 4.59 | > 44000 | > 44000 | > 5000 |  |  |  | 
13 | COC(=O)N[C@H](C(=O)N1CCC[C@H]1c1ncc(-c2ccc(-c3ccc(-c4cnc([C@@H]5[C@H]6CC[C@H](C6)N5C(=O)[C@@H](NC(=O)OC)C5CCOCC5)[nH]4)cc3)cc2)[nH]1)C(C)C [Example 61] |  | 1 to 990 |  |  |  |  |  |  | 1 to 999 | 1 to 999 | 1000 to 4990 | 0.087
14 | COC(=O)N[C@H](C(=O)N1CCC[C@H]1c1nc2ccc3cc(-c4ccc(-c5cnc([C@@H]6[C@H]7CC[C@H](C7)N6C(=O)[C@@H](NC(=O)OC)C6CCOCC6)[nH]5)c(F)c4)ccc3c2[nH]1)C(C)C [Example 305] | 1 to 999 | 1 to 990 | 1 to 999 | 1 to 990 | 0.017 |  |  |  |  |  |  | 
15 | COC(=O)N[C@H](C(=O)N1[C@@H]2CC[C@@H](C2)[C@H]1c1ncc(-c2ccc(-c3ccc4c(ccc5nc([C@@H]6CCCN6C(=O)[C@@H](NC(=O)OC)C6CCOCC6)[nH]c54)c3)cc2F)[nH]1)C(C)C [Example 302] | 1 to 999 | 1 to 990 | 1 to 999 | 1 to 990 | 0.021 |  |  |  |  |  |  | 
16 | COC(=O)NC(C(=O)N1CC2(CC2)C[C@H]1c1ncc(-c2ccc(-c3ccc4cc(-c5cnc([C@@H]6CCCN6C(=O)[C@H](NC(=O)OC)c6ccccc6)[nH]5)ccc4c3)cc2)[nH]1)[C@@H](C)OC (stereo partly shown) [Example 262] |  | 1 to 990 |  |  | 0.008 | 1 to 999 | 1 to 999 | 1 to 990 |  |  |  | 
17 | COC(=O)N[C@H](C(=O)N1[C@@H]2C[C@@H]2C[C@H]1c1nc2ccc3cc(-c4ccc(-c5cnc([C@@H]6[C@H]7CC[C@H](C7)N6C(=O)[C@@H](NC(=O)OC)C6CCOCC6)[nH]5)cc4)ccc3c2[nH]1)C(C)C [Example 335] | 1 to 999 | 1 to 990 | 1 to 999 | 1 to 990 | 0.027 |  |  |  |  |  |  | 
18 | COC(=O)N[C@H](C(=O)N1CCC[C@H]1c1ncc(-c2ccc3c(c2)CCc2cc(-c4ccc5nc([C@@H]6[C@H]7CC[C@H](C7)N6C(=O)[C@@H](NC(=O)OC)[C@@H](C)OC)[nH]c5c4)ccc2-3)[nH]1)[C@@H](C)OC [Example 76] |  | 1 to 990 |  |  |  |  |  |  | 1000 to 44000 | 1 to 999 | 1000 to 4990 | 0.01
19 | COC(=O)N[C@@H](C(=O)N1CCC[C@H]1c1ncc(-c2ccc3cc(-c4ccc5c(c4)CCc4nc([C@@H]6CCCN6C(=O)[C@@H](NC(O)OC)C6CCN(S(C)(=O)=O)CC6)[nH]c4-5)ccc3c2)[nH]1)c1ccccc1 (stereo partly shown) [Example 281] |  | 1 to 990 |  |  | 0.063 | 1 to 999 | 1 to 999 | 1 to 990 |  |  |  | 
20 | COC(=O)N[C@H](C(=O)N1CCC[C@H]1c1ncc(-c2ccc3c(c2)COc2cc(-c4ccc5nc([C@@H]6[C@H]7CC[C@H](C7)N6C(=O)[C@H](NC(=O)OC)c6ccccc6)[nH]c5c4)ccc2-3)[nH]1)C(C)C [Example 94] |  | 1 to 990 |  |  |  |  |  |  | 1 to 999 | 1 to 999 | 1 to 990 | 0.007
